Tests used:
[1] = system: hypertension attributed to 5/6 nephrectomy; experiment: Prophylactic effect of one hour daily H2 inhalation after 5/6 nephrectomy, invasive arterial blood pressure at 4 weeks; type: in vivo, Lewis rat; settings: four weeks after 5/6 nephrectomy; 1.3% H2 inhaled one hour daily from immediately after nephrectomy; N=3; mean±SE; P=0.02 vs control gas (134.1±3.3)
Description: Invasive blood pressure measurement was performed 4 weeks after gas inhalation. An arterial catheter (PE50, Natsume) was inserted under isoflurane inhalation into the left femoral artery, and arterial blood pressure was measured (DX-360, Nihon Kohden). In order to elicit renal hypertension, 5/6 nephrectomy was carried out with slight modification to previously described methods (Nephrology (Carlton) 19, 552-561; 10.1111/nep.12279 (2014); J. Am. Soc. Nephrol. 4, 2023-2031 (1994); and Kidney Int. 40, 29-34; 10.1038/ki.1991.175 (1991).). Briefly, rats were anesthetized by isoflurane inhalation (induction at 4% and maintenance at 1.5%), and upper midline laparotomy of about 4 cm was carried out. Surgical operation was performed under a microscope, the left renal artery branch was identified, and selectively ligated with 7-0 silk at a position as close as possible to the left kidney so that macroscopic infarction is caused in about ⅔ of the left renal cortex. In the first pilot research (FIGS. 1a and 2), a high-temperature cautery pen (AA11, Bovie, Tenn., U.S.A.) was used to add the resection of the infarcted portion of the kidney. Subsequently, the right renal artery, the renal vein, and the urinary duct was ligated with 4-0 silk, and the right kidney were resected. The abdominal wall and the skin were closed with a 4-0 nylon thread. […]

[2] = system: autonomic nervous system activity; experiment: Spectral analysis of blood pressure variability (autonomic nervous system) in 5/6 nephrectomized rats; type: in vivo, Lewis rat
Description: (§1) Heart rate variability was analyzed using telemetry system software (Ponemah Ver. 6.3, Data Science International). Frequency domain analysis (sampling rate of 500 Hz; very low frequency (VLF) (0.05-0.25 Hz); low frequency (LF) (0.25-1.0 Hz); and high frequency (HF) (1.0-3.0 Hz)) was carried out using the arterial pressure waveform data of the first one minute of every five minutes (about 300 to 400 beats). In heart rate variability analysis, data recorded in the first 15 minutes was excluded, and effective data in the first one minute out of a block of every 5 minutes was used. LF and HF each reflected the sympathetic nerve component and the parasympathetic nerve component (Akselrod, S. et al. Power spectrum analysis of heart rate fluctuation: a quantitative probe of beat-to-beat cardiovascular control. Science 213, 220-222 (1981); Pagani, M. et al. Power spectral analysis of heart rate and arterial pressure variabilities as a marker of sympatho-vagal interaction in man and conscious dog. Circ. Res. 59, 178-193 (1986); and Montano, N. et al. Power spectrum analysis of heart rate variability to assess the changes in sympathovagal balance during graded orthostatic tilt. Circulation 90, 1826-1831 (1994)). LF/HF ratio and HF/(LF+HF) were each handled as indicators of sympathetic nerve activity and parasympathetic nerve activity (Heart rate variability: standards of measurement, physiological interpretation and clinical use. Task Force of the European Society of Cardiology and the North American Society of Pacing and Electrophysiology. Circulation 93, 1043-1065 (1996); and Pagani, M. et al. Relationship between spectral components of cardiovascular variabilities and direct measures of muscle sympathetic nerve activity in humans. Circulation 95, 1441-1448 (1997)).
(§2) H2 gas (1.3% H2+21% O2+77.7 N2) and control gas (21% O2+79% N2) were filled into gas cylinders in advance at a factory. The H2 group and the control group were allowed to inhale the H2 gas and the control gas that were mixed in advance. […]

[3] = system: autonomic nerve function; experiment: Autonomic nerve function by frequency analysis in spontaneous hypertension rats; type: in vivo, rat (SHR/Izumo); settings: SHR
Description: as §1, §2

[4] = baseline (day 0) to 4 weeks after starting H2 inhalation, vs control 5/6 nephrectomy group

[2H][2H] [H2 gas, Molecular hydrogen (H2)]
mean arterial pressure (MAP) [1]: 94.2±10.3 mmHg
decrease in HF power (normalised units), change from baseline [2, 4]: significantly suppressed
increase in LF power (normalised units), change from baseline [2, 4]: significantly suppressed
increase in LF power and decrease in HF power, compared as continuous variables ([2]; over a 4-week time course, tendency to be suppressed): not significant
paraSNA (HF/LF+HF) ratio ([3]; Week two compared to Week 1): increases
influence on the autonomic nerve function after the end of inhalation ([3]; after the first week after the end of inhalation): disappeared
SNA (LF/HF) ([3]; during inhalation of H2): decreases

Reference: patent publication US20210177889A1, “GASEOUS PHARMACEUTICAL COMPOSITION FOR HYPERTENSION THERAPY” (KEIO UNIVERSITY, priority 2019, published 2021)
